Converted amounts (≈) assume the structure as drawn. Like-named read-outs stand apart in the source and are kept apart here.
How the values were obtained:
[1] = tested on: Phytophthora capsici (Pc); assay: Growth inhibition assay of fungal pathogens, Pc; type: cell-based; details: 48 h
In short: (§1)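 Pathogen growth in 17% V8 broth is measured by OD600 at 24 and 48 hours, after blank subtraction, in the presence of compound at 50, 10 and 2 ppm or 2, 0.4 and 0.08 ppm. Inhibition in percent comes from 48-hour readings against the DMSO control.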

[2] = target: human (hACC2) (Homo sapiens, UniProt O00763); assay: In vitro ACC inhibition assay (ADP-Glo), hACC2; type: biochemical; details: 5 nM ACC2, 20 μM ATP, 20 μM acetyl-CoA
Description: The detailed procedure is as follows. […] 10 μL ADP glo reagent was added. […] 20 μL kinase detection reagent was added.

[3] = tested on: Rhizoctonia solani (Rs); assay: Growth inhibition assay of fungal pathogens, Rs; type: cell-based; details: 48 h
[4] = tested on: C. parapsilosis; assay: Antifungal Activity Assay (broth microtiter MIC), C. parapsilosis; type: cell-based, Candida parapsilosis; details: Lodderomyces parapsilosis, ATCC22019, 48 h
In short: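 Broth microdilution per CLSI M27-A3 in RPMI 1640+MOPS, inoculum 2.5×10^3 CFU/mL final from overnight Sabouraud dextrose agar cultures at 35° C. Compounds diluted from DMSO stock to 128 μg/mL in water. MIC read visually versus growth control at 48 h.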

[5] = tested on: Fusarium moniliforme (Fm); assay: Growth inhibition assay of fungal pathogens, Fm; type: cell-based; details: for IC90: Fusarium verticillioides, 48 h, read-out: Concentration at 90% Inhibition Fm
In short: as §1

[6] = tested on: Septoria tritici (St); assay: Growth inhibition assay of fungal pathogens, St; type: cell-based; details: Zymoseptoria tritici, 48 h
In short: as §1

[7] = tested on: Diplodia maydis (Dm); assay: Growth inhibition assay of fungal pathogens, Dm; type: cell-based; details: Stenocarpella maydis, 48 h
In short: as §1

[8] = tested on: Collectotrichum graminicola (Cg); assay: Growth inhibition assay of fungal pathogens, Cg; type: cell-based; details: 48 h
In short: as §1

[9] = tested on: Fusarium virguliforme (Fv); assay: Growth inhibition assay of fungal pathogens, Fv; type: cell-based; details: 48 h
In short: as §1

[10] = read-out: Concentration at 90% Inhibition Pc, Phytophthora capsici, growth inhibition at 48 hours vs 2% DMSO control
[11] = read-out: Concentration at 90% Inhibition Pc, Phytophthora capsici, growth inhibition vs 2% DMSO control at 48 hours
[12] = read-out: Concentration at 90% Inhibition Rs, Rhizoctonia solani, mycelial plugs, growth inhibition at 48 hours vs 2% DMSO control
[13] = read-out: Concentration at 90% Inhibition Rs, Rhizoctonia solani, mycelial plugs, growth inhibition vs 2% DMSO control at 48 hours
[14] = read-out: MIC, C. parapsilosis ATCC 22019, Table 3a, 3 replicates, MIC recorded at 48 h
[15] = read-out: MIC, C. parapsilosis ATCC 22019, Table 3b (additional results), 3 replicates, MIC recorded at 48 h
[16] = Fusarium moniliforme, growth inhibition at 48 hours vs 2% DMSO control
[17] = read-out: Concentration at 90% Inhibition St, Septoria tritici, growth inhibition at 48 hours vs 2% DMSO control
[18] = read-out: Concentration at 90% Inhibition St, Septoria tritici, growth inhibition vs 2% DMSO control at 48 hours
[19] = read-out: Concentration at 90% Inhibition Dm, Diplodia maydis, growth inhibition at 48 hours vs 2% DMSO control
[20] = read-out: Concentration at 90% Inhibition Dm, Diplodia maydis, growth inhibition vs 2% DMSO control at 48 hours
[21] = read-out: Concentration at 90% Inhibition Cg, Collectotrichum graminicola, growth inhibition at 48 hours vs 2% DMSO control
[22] = read-out: Concentration at 90% Inhibition Cg, Collectotrichum graminicola, growth inhibition vs 2% DMSO control at 48 hours
[23] = read-out: Concentration at 90% Inhibition Fv, Fusarium virguliforme, growth inhibition at 48 hours vs 2% DMSO control
[24] = read-out: Concentration at 90% Inhibition Fv, Fusarium virguliforme, growth inhibition vs 2% DMSO control at 48 hours
[25] = growth inhibition at 48 hours vs 2% DMSO control, read-out: Concentration at 90% Inhibition Pc
[26] = growth inhibition vs 2% DMSO control at 48 hours, read-out: Concentration at 90% Inhibition Pc
[27] = mycelial plugs, growth inhibition at 48 hours vs 2% DMSO control, read-out: Concentration at 90% Inhibition Rs
[28] = mycelial plugs, growth inhibition vs 2% DMSO control at 48 hours, read-out: Concentration at 90% Inhibition Rs
[29] = Table 3a, ATCC 22019, 3 replicates, MIC recorded at 48 h, read-out: MIC, C. parapsilosis ATCC 22019
[30] = Table 3b (additional results), ATCC 22019, 3 replicates, MIC recorded at 48 h, read-out: MIC, C. parapsilosis ATCC 22019
[31] = Fusarium moniliforme, growth inhibition vs 2% DMSO control at 48 hours
[32] = Septoria tritici, growth inhibition at 48 hours vs 2% DMSO control, read-out: Concentration at 90% Inhibition St
[33] = Septoria tritici, growth inhibition vs 2% DMSO control at 48 hours, read-out: Concentration at 90% Inhibition St
[34] = Diplodia maydis, growth inhibition at 48 hours vs 2% DMSO control, read-out: Concentration at 90% Inhibition Dm
[35] = Diplodia maydis, growth inhibition vs 2% DMSO control at 48 hours, read-out: Concentration at 90% Inhibition Dm
[36] = Collectotrichum graminicola, growth inhibition at 48 hours vs 2% DMSO control, read-out: Concentration at 90% Inhibition Cg
[37] = Collectotrichum graminicola, growth inhibition vs 2% DMSO control at 48 hours, read-out: Concentration at 90% Inhibition Cg
[38] = growth inhibition at 48 hours vs 2% DMSO control, read-out: Concentration at 90% Inhibition Fv
[39] = growth inhibition vs 2% DMSO control at 48 hours, read-out: Concentration at 90% Inhibition Fv

human (hACC2), sequence (O00763 whole entry): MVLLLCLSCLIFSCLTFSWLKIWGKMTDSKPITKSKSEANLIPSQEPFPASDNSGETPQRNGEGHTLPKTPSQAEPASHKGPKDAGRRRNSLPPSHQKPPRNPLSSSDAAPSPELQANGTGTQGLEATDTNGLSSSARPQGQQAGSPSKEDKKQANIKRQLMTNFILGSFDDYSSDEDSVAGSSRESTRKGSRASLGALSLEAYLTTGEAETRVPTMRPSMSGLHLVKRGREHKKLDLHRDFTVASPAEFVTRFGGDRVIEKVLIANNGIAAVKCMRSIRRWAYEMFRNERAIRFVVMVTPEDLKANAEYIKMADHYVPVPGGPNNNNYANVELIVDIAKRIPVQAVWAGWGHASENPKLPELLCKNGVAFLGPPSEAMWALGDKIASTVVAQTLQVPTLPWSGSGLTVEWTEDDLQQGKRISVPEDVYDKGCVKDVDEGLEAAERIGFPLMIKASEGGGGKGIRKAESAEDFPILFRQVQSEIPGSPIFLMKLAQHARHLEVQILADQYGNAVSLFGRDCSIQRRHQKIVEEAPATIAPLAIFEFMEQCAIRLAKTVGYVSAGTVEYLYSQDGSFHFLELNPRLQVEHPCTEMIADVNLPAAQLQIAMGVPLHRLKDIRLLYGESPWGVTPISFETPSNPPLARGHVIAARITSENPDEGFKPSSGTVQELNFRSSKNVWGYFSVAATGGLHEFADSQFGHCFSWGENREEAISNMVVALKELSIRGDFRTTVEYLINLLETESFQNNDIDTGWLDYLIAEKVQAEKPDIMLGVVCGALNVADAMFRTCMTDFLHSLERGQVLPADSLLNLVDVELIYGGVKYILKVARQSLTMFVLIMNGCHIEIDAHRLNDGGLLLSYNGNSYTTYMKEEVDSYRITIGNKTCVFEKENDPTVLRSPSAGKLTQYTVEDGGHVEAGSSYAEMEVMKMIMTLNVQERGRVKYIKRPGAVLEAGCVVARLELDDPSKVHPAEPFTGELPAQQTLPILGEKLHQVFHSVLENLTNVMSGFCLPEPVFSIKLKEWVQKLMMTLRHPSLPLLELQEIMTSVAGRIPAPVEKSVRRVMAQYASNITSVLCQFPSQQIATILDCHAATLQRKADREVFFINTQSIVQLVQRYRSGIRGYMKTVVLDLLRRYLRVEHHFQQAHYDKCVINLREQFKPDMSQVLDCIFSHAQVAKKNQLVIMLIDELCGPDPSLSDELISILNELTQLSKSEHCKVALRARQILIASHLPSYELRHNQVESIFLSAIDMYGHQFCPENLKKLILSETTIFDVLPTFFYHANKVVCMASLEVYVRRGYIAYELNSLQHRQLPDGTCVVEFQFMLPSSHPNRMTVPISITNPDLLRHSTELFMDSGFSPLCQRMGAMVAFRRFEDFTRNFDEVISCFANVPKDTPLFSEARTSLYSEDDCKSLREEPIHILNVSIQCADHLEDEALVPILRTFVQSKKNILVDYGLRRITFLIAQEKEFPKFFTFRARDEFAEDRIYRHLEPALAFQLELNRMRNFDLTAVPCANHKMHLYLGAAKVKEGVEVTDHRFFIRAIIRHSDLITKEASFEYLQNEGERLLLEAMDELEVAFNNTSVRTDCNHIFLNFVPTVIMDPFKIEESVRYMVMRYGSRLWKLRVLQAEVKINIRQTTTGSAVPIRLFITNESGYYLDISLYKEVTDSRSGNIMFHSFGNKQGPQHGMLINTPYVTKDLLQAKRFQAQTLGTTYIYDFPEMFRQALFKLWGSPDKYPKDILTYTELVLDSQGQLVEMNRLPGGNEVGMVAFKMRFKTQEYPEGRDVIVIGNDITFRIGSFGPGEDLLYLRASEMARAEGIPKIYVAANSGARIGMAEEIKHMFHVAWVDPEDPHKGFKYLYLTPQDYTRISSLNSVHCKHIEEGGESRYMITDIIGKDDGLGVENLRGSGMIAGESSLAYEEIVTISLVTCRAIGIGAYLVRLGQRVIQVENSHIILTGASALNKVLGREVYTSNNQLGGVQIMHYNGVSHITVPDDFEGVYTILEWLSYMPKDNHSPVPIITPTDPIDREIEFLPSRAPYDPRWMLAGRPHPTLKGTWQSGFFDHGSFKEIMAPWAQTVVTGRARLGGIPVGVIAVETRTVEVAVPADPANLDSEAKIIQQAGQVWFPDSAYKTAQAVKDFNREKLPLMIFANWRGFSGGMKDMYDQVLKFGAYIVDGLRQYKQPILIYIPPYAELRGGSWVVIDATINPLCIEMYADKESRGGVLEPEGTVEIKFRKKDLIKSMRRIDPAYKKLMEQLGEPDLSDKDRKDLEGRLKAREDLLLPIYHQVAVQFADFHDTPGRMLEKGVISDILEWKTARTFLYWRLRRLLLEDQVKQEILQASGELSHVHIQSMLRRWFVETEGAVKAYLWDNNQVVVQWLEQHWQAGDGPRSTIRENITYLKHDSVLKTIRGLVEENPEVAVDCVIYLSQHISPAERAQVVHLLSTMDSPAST

SMILES	IC90 [1, 10] [µg/mL]	IC90 [1, 11] [µg/mL]	IC50 ([2]; Table 2a) [µM]	IC50 ([2]; Table 2b, additional results) [µM]	IC90 [3, 12] [µg/mL]	IC90 [3, 13] [µg/mL]	MIC [4, 14] [µg/mL]	MIC [4, 15] [µg/mL]	Concentration at 90% Inhibition Fm [5, 16]	IC90 [5] [µg/mL]	IC90 [6, 17] [µg/mL]	IC90 [6, 18] [µg/mL]	IC90 [7, 19] [µg/mL]	IC90 [7, 20] [µg/mL]	IC90 [8, 21] [µg/mL]	IC90 [8, 22] [µg/mL]	IC90 [9, 23] [µg/mL]	IC90 [9, 24] [µg/mL]	IC90 [1, 25] [µg/mL]	IC90 [1, 26] [µg/mL]	other results
COc1ccc(F)cc1[C@H](Cn1c(=O)n(C(C)(C)C(=O)N2CCOCC2)c(=O)c2c(C)c(-n3nccn3)sc21)OC(C)C [Compound I-5, (R)-1-(2-(5-fluoro-2-methoxyphenyl)-2-isopropoxyethyl)-5-methyl-3-(2-methyl-1-morpholino-1-oxopropan-2-yl)-6-(2H-1,2,3-triazol-2-yl)thieno[2,3-d]pyrimidine-2,4(1H,3H)-dione]	> 50	> 50	0.01 to 0.04	0.01 to 0.04	0.4 (≈ 0.651 µM)	0.4 (≈ 0.651 µM)	2.1 to 4 (≈ 3.42 to 6.51 µM)	> 4.01	AA (compound concentration of 0.08 ppm at 90% inhibition of fungal pathogens)	0.08 (≈ 0.13 µM)	10 (≈ 16.3 µM)	> 50	2 (≈ 3.25 µM)	2 (≈ 3.25 µM)	2 (≈ 3.25 µM)	2 (≈ 3.25 µM)	0.4 (≈ 0.651 µM)	0.4 (≈ 0.651 µM)	–	–	–
COc1ccc(F)cc1[C@H](Cn1c(=O)n(C(C)(C)C(=O)N2CCCCC2)c(=O)c2c(C)c(-n3nccn3)sc21)OC(C)C [Compound I-6, (R)-1-(2-(5-fluoro-2-methoxyphenyl)-2-isopropoxyethyl)-5-methyl-3-(2-methyl-1-oxo-1-(piperidin-1-yl)propan-2-yl)-6-(2H-1,2,3-triazol-2-yl)thieno[2,3-d]pyrimidine-2,4(1H,3H)-dione]	> 50	> 50	0.01 to 0.04	0.01 to 0.04	0.08 (≈ 0.131 µM)	0.08 (≈ 0.131 µM)	1.1 to 2 (≈ 1.8 to 3.26 µM)	1.01 to 2 (≈ 1.65 to 3.26 µM)	AA (compound concentration of 0.08 ppm at 90% inhibition of fungal pathogens)	0.08 (≈ 0.131 µM)	2 (≈ 3.26 µM)	10 (≈ 16.3 µM)	0.08 (≈ 0.131 µM)	0.08 (≈ 0.131 µM)	0.08 (≈ 0.131 µM)	0.08 (≈ 0.131 µM)	0.08 (≈ 0.131 µM)	0.08 (≈ 0.131 µM)	–	–	–
COc1ccc(F)cc1[C@H](Cn1c(=O)n(C(C)(C)C(N)=O)c(=O)c2c(C)c(-n3nccn3)sc21)OCC(C)C [Compound I-8, (R)-2-(1-(2-(5-fluoro-2-methoxyphenyl)-2-isobutoxyethyl)-5-methyl-2,4-dioxo-6-(2H-1,2,3-triazol-2-yl)-1,4-dihydrothieno[2,3-d]pyrimidin-3(2H)-yl)-2-methylpropanamide]	–	–	0.005 to 0.01	0.005 to 0.01	–	–	–	–	–	–	–	–	–	–	–	–	–	–	> 50	> 50	IC90 [3, 27]: 2 µg/mL (≈ 3.58 µM); IC90 [3, 28]: 2 µg/mL (≈ 3.58 µM); MIC [4, 29]: 2.1 to 4 µg/mL (≈ 3.76 to 7.16 µM); MIC [4, 30]: 2.01 to 4 µg/mL (≈ 3.6 to 7.16 µM); IC90 [5, 16]: 0.08 µg/mL (≈ 0.143 µM); IC90 [5, 31]: 0.08 µg/mL (≈ 0.143 µM); IC90 [6, 32]: > 50 µg/mL; IC90 [6, 33]: > 50 µg/mL; IC90 [7, 34]: 2 µg/mL (≈ 3.58 µM); IC90 [7, 35]: 2 µg/mL (≈ 3.58 µM); IC90 [8, 36]: 2 µg/mL (≈ 3.58 µM); IC90 [8, 37]: 2 µg/mL (≈ 3.58 µM); IC90 [9, 38]: 2 µg/mL (≈ 3.58 µM); IC90 [9, 39]: 2 µg/mL (≈ 3.58 µM)
CCNC(=O)C(C)(C)n1c(=O)c2c(C)c(-n3nccn3)sc2n(C[C@H](OCC(C)C)c2cc(F)ccc2OC)c1=O [Compound I-9, (R)—N-ethyl-2-(1-(2-(5-fluoro-2-methoxyphenyl)-2-isobutoxyethyl)-5-methyl-2,4-dioxo-6-(2H-1,2,3-triazol-2-yl)-1,4-dihydrothieno[2,3-d]pyrimidin-3(2H)-yl)-2-methylpropanamide]	–	–	0.005 to 0.01	0.001 to 0.005	–	–	–	–	–	–	–	–	–	–	–	–	–	–	> 50	> 50	IC90 [3, 27]: 0.4 µg/mL (≈ 0.682 µM); IC90 [3, 28]: 0.4 µg/mL (≈ 0.682 µM); MIC [4, 29]: 2.1 to 4 µg/mL (≈ 3.58 to 6.82 µM); MIC [4, 30]: 1.01 to 2 µg/mL (≈ 1.72 to 3.41 µM); IC90 [5, 16]: 0.08 µg/mL (≈ 0.136 µM); IC90 [5, 31]: 0.08 µg/mL (≈ 0.136 µM); IC90 [6, 32]: 10 µg/mL (≈ 17 µM); IC90 [6, 33]: > 50 µg/mL; IC90 [7, 34]: 0.4 µg/mL (≈ 0.682 µM); IC90 [7, 35]: 0.4 µg/mL (≈ 0.682 µM); IC90 [8, 36]: 0.4 µg/mL (≈ 0.682 µM); IC90 [8, 37]: 0.4 µg/mL (≈ 0.682 µM); IC90 [9, 38]: 0.4 µg/mL (≈ 0.682 µM); IC90 [9, 39]: 0.4 µg/mL (≈ 0.682 µM)
COc1ccc(F)cc1[C@H](Cn1c(=O)n(C(C)(C)C(=O)N2CCCCC2)c(=O)c2c(C)c(-n3nccn3)sc21)OCC(C)C [Compound I-11, (R)-1-(2-(5-fluoro-2-methoxyphenyl)-2-isobutoxyethyl)-5-methyl-3-(2-methyl-1-oxo-1-(piperidin-1-yl)propan-2-yl)-6-(2H-1,2,3-triazol-2-yl)thieno[2,3-d]pyrimidine-2,4(1H,3H)-dione]	> 50	> 50	0.01 to 0.04	0.01 to 0.04	0.4 (≈ 0.638 µM)	0.4 (≈ 0.638 µM)	1.1 to 2 (≈ 1.76 to 3.19 µM)	1.01 to 2 (≈ 1.61 to 3.19 µM)	AA (compound concentration of 0.08 ppm at 90% inhibition of fungal pathogens)	0.08 (≈ 0.128 µM)	10 (≈ 16 µM)	> 50	0.4 (≈ 0.638 µM)	0.4 (≈ 0.638 µM)	0.4 (≈ 0.638 µM)	0.4 (≈ 0.638 µM)	2 (≈ 3.19 µM)	2 (≈ 3.19 µM)	–	–	–
COc1ccc(F)cc1[C@H](Cn1c(=O)n(C(C)(C)C(=O)N2CCCC2)c(=O)c2c(C)c(-n3nccn3)sc21)OCC(C)C [Compound I-12, (R)-1-(2-(5-fluoro-2-methoxyphenyl)-2-isobutoxyethyl)-5-methyl-3-(2-methyl-1-oxo-1-(pyrrolidin-1-yl)propan-2-yl)-6-(2H-1,2,3-triazol-2-yl)thieno[2,3-d]pyrimidine-2,4(1H,3H)-dione]	–	–	0.01 to 0.04	0.01 to 0.04	–	–	–	–	–	–	–	–	–	–	–	–	–	–	> 50	> 50	IC90 [3, 27]: 0.08 µg/mL (≈ 0.131 µM); IC90 [3, 28]: 0.08 µg/mL (≈ 0.131 µM); MIC [4, 29]: 2.1 to 4 µg/mL (≈ 3.43 to 6.53 µM); MIC [4, 30]: 1.01 to 2 µg/mL (≈ 1.65 to 3.26 µM); IC90 [5, 16]: 0.08 µg/mL (≈ 0.131 µM); IC90 [5, 31]: 0.08 µg/mL (≈ 0.131 µM); IC90 [6, 32]: 2 µg/mL (≈ 3.26 µM); IC90 [6, 33]: 10 µg/mL (≈ 16.3 µM); IC90 [7, 34]: 0.08 µg/mL (≈ 0.131 µM); IC90 [7, 35]: 0.08 µg/mL (≈ 0.131 µM); IC90 [8, 36]: 0.08 µg/mL (≈ 0.131 µM); IC90 [8, 37]: 0.08 µg/mL (≈ 0.131 µM); IC90 [9, 38]: 0.4 µg/mL (≈ 0.653 µM); IC90 [9, 39]: 0.4 µg/mL (≈ 0.653 µM)

— patent US10800791B2, “Triazole ACC inhibitors and uses thereof” (Gilead Apollo, LLC, priority 2015, dated 2020)
